These results are taken from patent publication EP4623912A1, “A METHOD FOR DEFATTENING A STEATOTIC LIVER EX VIVO” (ETH Zurich, priority 2024, dated 2025).

The structures appear in SMILES notation.

This assay relates to male C57BL/6N wild-type mice. The assay can be described thus: HFD-induced hepatic steatosis (NAFLD) mouse model. To be noted: HFD 12 weeks. The assay is classed as in vivo. The method, then:
Male mice were used for NAFLD induction via feeding on HFD. ROSA26-LSL-spCas9 mice were injected with AAV-U6-Cu/7 gRNAs-TBG-Cre and AAV-U6-Fbxw8 gRNAs-TBG-Cre virus pools at a dose of 3×10^11 genome copies/mouse and fed in HFD for 12 weeks and livers were harvested after 6 hours fasting. To study PI4KB in NAFLD progression, male ROSA26-LSL-spCas9 mice were fed in HFD for 12 weeks to induce fatty liver before induction of hepatocyte specific depletion of PI4KB via intravenous administration of AAV8. After another 8 weeks, mice were dissected to harvest liver after 6 hours fasting. Likewise, male C57BL/6N wild-type mice and liver specific Atgl knockout mice (AtgILKO) were challenged with HFD for 12 weeks to induce fatty liver prior to administration of UCB9608 mixed in HFD (5 mg/kg) for another 8 weeks. Then the mice were dissected to harvest tissues and sample blood after 6 hours fasting Atgl floxed mice (The Jackson Lab strain) were crossed with Albumin-Cre (The Jackson Lab strain) and Adip-CreERT2 strains to obtain Alb-Atgfl^fl/fl and AdipcreERT2-Atgl^fl/fl mice (Sitnick,M.T. et al, Diabetes 62, (2013)), which deplete ATGL protein in the liver and the adipose depots (induced after tamoxifen gavage), respectively. Male mice from both strains were injected with 2-DG (2 g/kg BW) to induce glucose deprivation for 6 hours prior to tissue and blood harvesting.
Adipose depots, liver pieces, differentiated iBAs, HepG2, HEK293T and HEK293-AAV cell types were homogenized in RIPA buffer (50 mM Tris-HCl pH 7.4, 150 mM NaCl, 2 mM EDTA, 1.0% Triton X100, 0.5% sodium deoxycholate) with protease inhibitors (Complete, Roche) and phosphatase inhibitors (Halt phosphatase inhibitor cocktail, ThermoFisher). The homogenates were centrifuged at 12,000×g for 10 min at 4°C to remove debris and collect whole cell extract (WCE). The concentration of WCE was determined by DC Protein Assay (Bio-Rad). After boiling the sample with Lämmeli buffer at 95°C for 5 min, equal amount of proteins was loaded and separated on 12% SDS-PAGE. The proteins were transferred to nitrocellulose membrane and blotted by ATGL (1:1000, Cell Signaling), CGI-58 (1:1000, Proteintech), phospho-HSL(Ser660) (1:1000, Cell Signaling), PLIN1 (1:1000, Cell Signaling), HSL (1:1000, Cell Signaling), γ-tubulin (1:10000, Sigma), FLAG (1:10000, Sigma; 1:1000, Cell Signaling), MGL (1:1000, Abcam), HA (1:1000, Cell signaling), FBXW8 (1:100, Santa Cruz; 1:1000, Sigma), CUL7 (1:100, Santa Cruz), HSP90 (1:1000, Cell Signaling), K48 polyubiquitin (1:1000, Cell signaling), PI4KB (1:1000, Sigma), SACM1L (1:1000, Sigma), AKT1 (1:1000, Cell Signaling), phospho-AKT1(Ser473) (1:1000, Cell Signaling), TGN46 (1:1000, Abcam), MAOA (1:1000, Abcam), PLIN2 (1:1000, Abcam), PMP70 (1:10000, Sigma), Calnexin (1:1000, Cell Signaling), ARF1 (1:1000, Invitrogen), GAPDH (1:1000, Cell Signaling), RAB7 (1:1000, Cell Signaling), alpha 1 Sodium Potassium ATPase (1:1000, Abcam), Cleaved Caspase-3 (1:1000, Cell Signaling), phospho-AMPKα (Thr172) (1:1000, Cell Signaling), AMPKα (1:1000, Cell Signaling) and GM130 (1:1000, Proteintech). […]
Plasma collected from mice under different conditions was used to determine levels of lipolysis and liver injury. FFA levels were measured via NEFA assay kit (Wako NEFA kit). TG levels were determined via TG assay kit (Roche Trig/GB reagent). […] The absorbance was monitored using Synergy Gen5 Platereader.
Weight of liver pieces (50-100 mg) was recorded before homogenization by 1 mL isopropanol per 50 mg tissue. […]

[1] abbreviates: then UCB9608 in HFD (5 mg/kg) 8 weeks, vs DMSO.

For `COc1ccc(NC(=O)N2CCN(c3nc(N)nc4c3cnn4C)[C@@H](C)C2)c(C)c1` [UCB9608], under setting [1], the “ATGL protein levels in the gWAT” value is “significantly greater”, the “ATGL protein levels in the iBAT” value is recorded as “significantly greater” and the “ATGL protein levels in the liver” value is listed as “significantly greater”. For the setting “then UCB9608 in HFD (5 mg/kg) 8 weeks, requires ATGL in the liver (Fig. 6h)”, the “hepatic steatosis (hepatic TG levels)” value is listed as “substantially attenuated”. Moreover, the “plasma FFA levels” value (then UCB9608 mixed in HFD (5 mg/kg) 8 weeks, vs DMSO (Fig. 6g)) was “significantly increased”.
